The source of these data is ChEMBL document CHEMBL5291721, “A preclinical secondary pharmacology resource illuminates target-adverse drug reaction associations of marketed drugs” (Nat Commun, 2023).

Targets include Histamine H1 receptor (Homo sapiens, UniProt P35367); Histamine H3 receptor (Homo sapiens, UniProt Q9Y5N1); D(3) dopamine receptor (Homo sapiens, UniProt P35462).
The target in the next experiment is T1, Glucocorticoid receptor (Homo sapiens, UniProt P04150).
T1 sequence (P04150 whole entry): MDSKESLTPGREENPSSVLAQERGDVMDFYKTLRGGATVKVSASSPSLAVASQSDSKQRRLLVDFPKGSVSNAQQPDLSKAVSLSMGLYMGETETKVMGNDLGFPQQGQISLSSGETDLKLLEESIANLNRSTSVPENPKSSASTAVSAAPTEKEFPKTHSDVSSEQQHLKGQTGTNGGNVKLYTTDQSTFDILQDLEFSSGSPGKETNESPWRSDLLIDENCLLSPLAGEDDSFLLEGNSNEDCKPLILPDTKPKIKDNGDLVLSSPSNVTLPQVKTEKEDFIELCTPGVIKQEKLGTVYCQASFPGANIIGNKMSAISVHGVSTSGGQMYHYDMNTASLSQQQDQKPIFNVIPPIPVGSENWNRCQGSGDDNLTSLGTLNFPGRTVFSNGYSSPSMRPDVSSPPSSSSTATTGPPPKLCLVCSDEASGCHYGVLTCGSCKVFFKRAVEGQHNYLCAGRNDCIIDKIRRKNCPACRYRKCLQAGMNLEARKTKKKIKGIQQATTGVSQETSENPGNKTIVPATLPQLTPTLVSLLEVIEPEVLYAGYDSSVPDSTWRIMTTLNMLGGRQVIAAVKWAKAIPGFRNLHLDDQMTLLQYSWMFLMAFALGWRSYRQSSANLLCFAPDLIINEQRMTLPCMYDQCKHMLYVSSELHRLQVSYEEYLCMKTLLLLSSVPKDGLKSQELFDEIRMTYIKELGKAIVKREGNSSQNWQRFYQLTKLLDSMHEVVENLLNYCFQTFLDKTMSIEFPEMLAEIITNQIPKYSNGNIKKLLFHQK

For experiment [1], the target named is Delta-type opioid receptor (Homo sapiens, UniProt P41143).
Delta-type opioid receptor, sequence (P41143 whole entry): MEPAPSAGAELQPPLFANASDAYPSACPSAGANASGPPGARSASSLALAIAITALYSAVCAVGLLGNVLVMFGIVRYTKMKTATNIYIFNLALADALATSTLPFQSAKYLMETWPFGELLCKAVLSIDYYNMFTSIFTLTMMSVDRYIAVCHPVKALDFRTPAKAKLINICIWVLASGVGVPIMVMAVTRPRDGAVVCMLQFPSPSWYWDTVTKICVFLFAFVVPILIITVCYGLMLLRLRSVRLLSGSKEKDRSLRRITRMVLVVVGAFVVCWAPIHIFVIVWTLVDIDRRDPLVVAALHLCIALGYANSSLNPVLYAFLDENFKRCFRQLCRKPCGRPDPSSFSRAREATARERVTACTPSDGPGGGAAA
Experiment [2] has as its target T2, 5-hydroxytryptamine receptor 2C (Homo sapiens, UniProt P28335).
T2 sequence (P28335 whole entry): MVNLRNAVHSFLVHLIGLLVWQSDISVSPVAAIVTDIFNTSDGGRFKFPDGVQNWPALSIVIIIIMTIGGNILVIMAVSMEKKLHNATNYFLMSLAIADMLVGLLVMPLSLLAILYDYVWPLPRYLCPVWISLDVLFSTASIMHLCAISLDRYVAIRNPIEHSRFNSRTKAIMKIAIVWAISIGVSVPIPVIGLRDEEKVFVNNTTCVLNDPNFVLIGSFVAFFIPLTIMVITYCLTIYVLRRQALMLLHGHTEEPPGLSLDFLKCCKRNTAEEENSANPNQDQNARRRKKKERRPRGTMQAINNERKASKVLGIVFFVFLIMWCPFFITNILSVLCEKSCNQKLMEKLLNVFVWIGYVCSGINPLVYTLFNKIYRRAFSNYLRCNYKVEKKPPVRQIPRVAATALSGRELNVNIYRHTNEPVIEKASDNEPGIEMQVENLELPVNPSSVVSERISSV

Another experiment has as its target T3, Thromboxane A2 receptor (Homo sapiens, UniProt P21731).
T3 sequence (P21731 whole entry): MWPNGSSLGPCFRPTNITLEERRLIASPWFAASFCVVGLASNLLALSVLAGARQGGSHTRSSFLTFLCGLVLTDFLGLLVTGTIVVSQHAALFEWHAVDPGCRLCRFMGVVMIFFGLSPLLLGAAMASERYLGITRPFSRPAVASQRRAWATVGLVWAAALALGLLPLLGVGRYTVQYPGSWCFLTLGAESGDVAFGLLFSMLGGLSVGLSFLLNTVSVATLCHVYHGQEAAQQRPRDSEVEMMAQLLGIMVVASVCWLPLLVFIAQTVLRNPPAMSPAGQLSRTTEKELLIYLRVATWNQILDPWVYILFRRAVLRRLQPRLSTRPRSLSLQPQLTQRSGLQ

Experiment [3] concerns the target Sodium-dependent noradrenaline transporter (Homo sapiens, UniProt P23975).
In experiment [4] the target is Sodium-dependent serotonin transporter (Homo sapiens, UniProt P31645).
Sodium-dependent serotonin transporter, sequence (P31645 whole entry): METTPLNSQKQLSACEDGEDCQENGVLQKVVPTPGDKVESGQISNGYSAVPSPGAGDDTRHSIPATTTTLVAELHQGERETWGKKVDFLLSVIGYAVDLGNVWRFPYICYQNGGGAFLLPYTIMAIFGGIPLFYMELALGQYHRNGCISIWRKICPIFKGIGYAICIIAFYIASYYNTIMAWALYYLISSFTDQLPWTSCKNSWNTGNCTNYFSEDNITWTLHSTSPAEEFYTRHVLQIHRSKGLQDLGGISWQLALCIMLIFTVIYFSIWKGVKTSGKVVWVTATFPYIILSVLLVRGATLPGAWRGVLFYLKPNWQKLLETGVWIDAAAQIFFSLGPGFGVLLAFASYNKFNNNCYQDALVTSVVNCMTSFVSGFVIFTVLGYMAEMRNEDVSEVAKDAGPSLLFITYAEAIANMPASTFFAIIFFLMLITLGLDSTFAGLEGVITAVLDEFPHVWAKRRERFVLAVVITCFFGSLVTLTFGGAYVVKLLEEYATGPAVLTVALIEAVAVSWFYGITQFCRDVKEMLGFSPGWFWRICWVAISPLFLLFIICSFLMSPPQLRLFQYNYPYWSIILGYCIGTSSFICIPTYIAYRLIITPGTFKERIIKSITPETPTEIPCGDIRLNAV
The target in experiment [5] is Sodium-dependent dopamine transporter (Homo sapiens, UniProt Q01959).
Sodium-dependent dopamine transporter, sequence (Q01959 whole entry): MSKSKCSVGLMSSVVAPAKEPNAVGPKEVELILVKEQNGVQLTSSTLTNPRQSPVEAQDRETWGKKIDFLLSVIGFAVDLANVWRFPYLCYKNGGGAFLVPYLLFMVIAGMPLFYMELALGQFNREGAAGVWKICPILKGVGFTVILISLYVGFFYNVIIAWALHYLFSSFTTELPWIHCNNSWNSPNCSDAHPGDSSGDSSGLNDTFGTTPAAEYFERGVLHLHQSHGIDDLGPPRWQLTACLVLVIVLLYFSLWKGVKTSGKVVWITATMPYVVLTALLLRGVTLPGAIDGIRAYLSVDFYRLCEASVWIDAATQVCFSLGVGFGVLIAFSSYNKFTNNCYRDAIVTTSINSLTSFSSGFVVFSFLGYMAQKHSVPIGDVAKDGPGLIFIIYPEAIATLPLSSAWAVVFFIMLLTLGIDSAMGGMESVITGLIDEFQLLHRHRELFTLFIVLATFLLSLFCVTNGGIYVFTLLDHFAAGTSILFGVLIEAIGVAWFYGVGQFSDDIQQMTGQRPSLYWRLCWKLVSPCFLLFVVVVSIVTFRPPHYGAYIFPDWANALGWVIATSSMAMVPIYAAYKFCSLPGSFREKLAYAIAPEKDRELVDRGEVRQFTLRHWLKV
A further experiment deals with Histamine H2 receptor (Homo sapiens, UniProt P25021). In kind it is functional, cell-based.
Histamine H2 receptor, sequence (P25021 whole entry): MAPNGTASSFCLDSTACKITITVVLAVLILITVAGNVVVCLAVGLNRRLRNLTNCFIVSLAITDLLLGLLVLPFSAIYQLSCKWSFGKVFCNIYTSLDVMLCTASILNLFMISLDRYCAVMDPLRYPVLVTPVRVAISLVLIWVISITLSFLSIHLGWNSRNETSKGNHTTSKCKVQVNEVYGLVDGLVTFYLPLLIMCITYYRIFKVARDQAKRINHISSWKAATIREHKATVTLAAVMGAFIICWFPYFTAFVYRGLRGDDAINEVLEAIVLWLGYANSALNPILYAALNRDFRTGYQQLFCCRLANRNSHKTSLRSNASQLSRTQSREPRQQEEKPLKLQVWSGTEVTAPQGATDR
For a further experiment, the target named is T4, Progesterone receptor (Homo sapiens, UniProt P06401).
T4 sequence (P06401 whole entry): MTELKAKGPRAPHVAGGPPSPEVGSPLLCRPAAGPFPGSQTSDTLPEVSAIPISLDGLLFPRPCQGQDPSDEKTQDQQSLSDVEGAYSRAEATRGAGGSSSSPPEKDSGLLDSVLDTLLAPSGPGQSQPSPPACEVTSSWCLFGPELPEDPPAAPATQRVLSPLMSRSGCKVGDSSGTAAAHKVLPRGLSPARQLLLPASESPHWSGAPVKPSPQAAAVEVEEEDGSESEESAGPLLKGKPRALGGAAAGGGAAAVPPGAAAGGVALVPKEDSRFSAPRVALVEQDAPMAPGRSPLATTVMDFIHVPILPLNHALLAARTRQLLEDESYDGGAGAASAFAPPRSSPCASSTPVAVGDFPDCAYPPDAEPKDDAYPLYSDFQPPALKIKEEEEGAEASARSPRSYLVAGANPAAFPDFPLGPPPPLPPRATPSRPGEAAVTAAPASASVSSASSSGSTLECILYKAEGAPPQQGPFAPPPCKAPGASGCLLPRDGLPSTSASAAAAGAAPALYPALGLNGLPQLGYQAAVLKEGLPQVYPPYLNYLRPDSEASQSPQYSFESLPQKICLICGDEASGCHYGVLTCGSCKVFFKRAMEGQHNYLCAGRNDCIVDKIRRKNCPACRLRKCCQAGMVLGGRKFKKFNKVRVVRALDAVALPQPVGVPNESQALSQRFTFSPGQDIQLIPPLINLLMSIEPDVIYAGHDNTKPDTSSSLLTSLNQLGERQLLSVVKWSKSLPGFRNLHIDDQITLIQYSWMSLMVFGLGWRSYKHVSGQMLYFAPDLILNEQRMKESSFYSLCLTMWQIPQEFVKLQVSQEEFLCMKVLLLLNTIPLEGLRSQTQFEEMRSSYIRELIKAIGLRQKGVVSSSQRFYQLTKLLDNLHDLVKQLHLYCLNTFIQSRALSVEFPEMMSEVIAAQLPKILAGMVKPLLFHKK
In kind it is functional.
Note: assay procedure not described here.

Histamine H3 receptor, sequence (Q9Y5N1 whole entry): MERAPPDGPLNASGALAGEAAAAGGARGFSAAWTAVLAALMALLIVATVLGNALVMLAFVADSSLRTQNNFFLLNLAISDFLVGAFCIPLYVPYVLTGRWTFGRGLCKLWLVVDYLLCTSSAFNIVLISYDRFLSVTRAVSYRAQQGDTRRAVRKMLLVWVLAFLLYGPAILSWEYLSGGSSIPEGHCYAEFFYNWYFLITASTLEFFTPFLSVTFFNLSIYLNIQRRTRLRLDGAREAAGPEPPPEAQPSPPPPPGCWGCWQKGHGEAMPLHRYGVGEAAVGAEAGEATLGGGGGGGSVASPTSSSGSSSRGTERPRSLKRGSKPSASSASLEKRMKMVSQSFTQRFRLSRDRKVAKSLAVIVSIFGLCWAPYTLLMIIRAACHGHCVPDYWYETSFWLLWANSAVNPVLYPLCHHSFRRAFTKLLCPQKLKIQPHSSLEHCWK
Histamine H1 receptor, sequence (P35367 whole entry): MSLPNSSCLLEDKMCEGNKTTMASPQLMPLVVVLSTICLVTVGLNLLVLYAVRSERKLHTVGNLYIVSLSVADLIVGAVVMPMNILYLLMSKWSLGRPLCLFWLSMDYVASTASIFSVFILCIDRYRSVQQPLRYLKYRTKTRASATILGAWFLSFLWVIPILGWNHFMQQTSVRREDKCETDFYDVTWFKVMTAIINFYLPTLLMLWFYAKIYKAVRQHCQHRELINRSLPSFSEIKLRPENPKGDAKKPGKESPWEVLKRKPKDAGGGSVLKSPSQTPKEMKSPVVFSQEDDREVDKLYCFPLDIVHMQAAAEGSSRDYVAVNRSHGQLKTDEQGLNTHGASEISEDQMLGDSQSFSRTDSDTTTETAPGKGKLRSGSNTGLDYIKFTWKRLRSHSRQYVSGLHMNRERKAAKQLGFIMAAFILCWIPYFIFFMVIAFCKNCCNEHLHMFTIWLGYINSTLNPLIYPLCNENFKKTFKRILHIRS
Sodium-dependent noradrenaline transporter, sequence (P23975 whole entry): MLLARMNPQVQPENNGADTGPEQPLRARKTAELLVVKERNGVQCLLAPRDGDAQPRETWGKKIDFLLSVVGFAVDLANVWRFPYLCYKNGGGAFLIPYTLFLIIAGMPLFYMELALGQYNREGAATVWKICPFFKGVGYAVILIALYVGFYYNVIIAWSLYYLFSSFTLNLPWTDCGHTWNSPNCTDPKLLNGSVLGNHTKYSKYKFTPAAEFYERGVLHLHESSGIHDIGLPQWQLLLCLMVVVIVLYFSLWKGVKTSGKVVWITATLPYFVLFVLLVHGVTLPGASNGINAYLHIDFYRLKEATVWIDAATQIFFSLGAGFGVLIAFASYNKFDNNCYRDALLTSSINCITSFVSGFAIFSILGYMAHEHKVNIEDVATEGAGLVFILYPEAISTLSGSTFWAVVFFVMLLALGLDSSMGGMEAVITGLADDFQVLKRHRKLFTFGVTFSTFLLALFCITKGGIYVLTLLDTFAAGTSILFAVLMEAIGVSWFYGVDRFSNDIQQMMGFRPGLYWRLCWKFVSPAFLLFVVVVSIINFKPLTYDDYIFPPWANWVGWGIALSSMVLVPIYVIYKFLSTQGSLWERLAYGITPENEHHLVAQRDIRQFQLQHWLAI
D(3) dopamine receptor, sequence (P35462 whole entry): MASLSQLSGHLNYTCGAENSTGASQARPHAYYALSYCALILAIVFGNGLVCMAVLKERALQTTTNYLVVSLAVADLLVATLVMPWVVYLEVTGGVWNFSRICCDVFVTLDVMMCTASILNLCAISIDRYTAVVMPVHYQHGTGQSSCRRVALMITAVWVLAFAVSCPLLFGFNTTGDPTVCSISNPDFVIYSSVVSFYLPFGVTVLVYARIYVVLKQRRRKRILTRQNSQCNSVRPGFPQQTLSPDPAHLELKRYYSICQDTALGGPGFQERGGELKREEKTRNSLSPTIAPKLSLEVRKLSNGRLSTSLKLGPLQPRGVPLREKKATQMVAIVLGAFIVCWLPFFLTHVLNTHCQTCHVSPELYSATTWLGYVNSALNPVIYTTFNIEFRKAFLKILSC

Regarding `O=C(O[C@H]1C[N+]2(CCCOc3ccccc3)CCC1CC2)C(O)(c1cccs1)c1cccs1` [ACLIDINIUM BROMIDE], the AC50 (usually the midpoint of the concentration-response curve, whichever way the signal moves) was more than 30 µM at Glucocorticoid receptor; more than 30 µM in [1]; 4.5 µM on Histamine H1 receptor; more than 30 µM in [2]; more than 10 µM on Histamine H3 receptor; more than 30 µM at Thromboxane A2 receptor. In addition, the concentration at half-maximal activity (AC50) (in experiment [3]; at D(3) dopamine receptor; in experiment [4]; in experiment [5]) was more than 10 µM throughout.
For `CC(=O)OCC1=C(C(=O)O)N2C(=O)[C@@H](NC(=O)Cc3cccs3)[C@H]2SC1` [CEPHALOTHIN], the concentration at half-maximal activity (AC50) (on Glucocorticoid receptor; in experiment [1]; at Histamine H1 receptor; in experiment [2]; at Histamine H3 receptor; at Histamine H2 receptor) was more than 30 µM throughout. Besides, the AC50 (in experiment [3]; at D(3) dopamine receptor; at Progesterone receptor; in experiment [4]; in experiment [5]) was more than 30 µM in each case.
In the case of `CC1=C(C(=O)O)N2C(=O)[C@@H](NC(=O)[C@H](N)C3=CCC=CC3)[C@H]2SC1` [CEPHRADINE], the AC50 (on Glucocorticoid receptor; in experiment [1]; on Histamine H1 receptor; in experiment [2]; on Histamine H3 receptor; on Histamine H2 receptor) was more than 30 µM throughout. The AC50 (in [3]; at D(3) dopamine receptor; on Progesterone receptor; in [4]; in experiment [5]) was more than 30 µM each time.
In the case of `Oc1cc(O)c2c(c1)O[C@H](c1ccc(O)c(O)c1)[C@@H](O)C2` [CIANIDANOL], the concentration at half-maximal activity (AC50) at Glucocorticoid receptor was more than 30 µM; in experiment [1], more than 30 µM; at Histamine H1 receptor it was more than 10 µM; in [2], more than 30 µM; on Histamine H3 receptor it was more than 10 µM; at Thromboxane A2 receptor, more than 30 µM. The concentration at half-maximal activity (AC50) at Histamine H2 receptor is more than 10 µM; in experiment [3], more than 30 µM; on D(3) dopamine receptor it was more than 30 µM; in [4], more than 30 µM; in experiment [5], more than 30 µM.
With `Nc1nc(Cl)nc2c1ncn2[C@@H]1O[C@H](CO)[C@@H](O)[C@@H]1F` [CLOFARABINE], the half-maximal activity concentration (AC50) (in experiment [1]; at Histamine H1 receptor; in experiment [2]; on Histamine H3 receptor; at Thromboxane A2 receptor; on Histamine H2 receptor) was more than 30 µM each time. Further, the concentration at half-maximal activity (AC50) (in experiment [3]; on D(3) dopamine receptor; on Progesterone receptor; in experiment [4]; in [5]) was more than 30 µM each time.
Take `CCN1C(=O)NC(c2ccccc2)C1=O` (centres undefined) [ETHOTOIN]: the half-maximal activity concentration (AC50) (at Glucocorticoid receptor; in experiment [1]; at Histamine H1 receptor; in [2]; at Histamine H3 receptor; at Histamine H2 receptor) was more than 30 µM in each case. Moreover, the half-maximal activity concentration (AC50) (in experiment [3]; on D(3) dopamine receptor; at Progesterone receptor; in [4]; in [5]) was more than 30 µM each time.
For `Cc1cnc(Nc2ccc(OCCN3CCCC3)cc2)nc1Nc1cccc(S(=O)(=O)NC(C)(C)C)c1` [FEDRATINIB], the AC50 is more than 30 µM on Glucocorticoid receptor; more than 30 µM in experiment [1]; more than 10 µM at Histamine H1 receptor; more than 30 µM in [2]; 3.9 µM on Histamine H3 receptor; more than 30 µM at Thromboxane A2 receptor. For the same compound, the half-maximal activity concentration (AC50) on Histamine H2 receptor was more than 10 µM; in experiment [3], 0.24 µM; on D(3) dopamine receptor, 5.3 µM; in experiment [4] it was 0.732 µM; in experiment [5], 0.08 µM.
Take `CN1C(=O)CN=C(c2ccccc2F)c2cc([N+](=O)[O-])ccc21` [FLUNITRAZEPAM]: the half-maximal activity concentration (AC50) was more than 30 µM on Glucocorticoid receptor; more than 10 µM in experiment [1]; more than 10 µM at Histamine H1 receptor; more than 30 µM in experiment [2]; more than 10 µM on Histamine H3 receptor; more than 30 µM on Thromboxane A2 receptor. For the same compound, the concentration at half-maximal activity (AC50) at Histamine H2 receptor is more than 10 µM; in [3] it was more than 10 µM; at D(3) dopamine receptor, more than 30 µM; in experiment [4] it was more than 10 µM; in experiment [5], more than 10 µM.
Regarding `CCC(NC(C)C)C(O)c1ccc(O)c(O)c1` (centres undefined) [ISOETHARINE], the concentration at half-maximal activity (AC50) (in experiment [1]; at Histamine H1 receptor; in experiment [2]; on Histamine H3 receptor; at Thromboxane A2 receptor; on Histamine H2 receptor) was more than 30 µM each time. The concentration at half-maximal activity (AC50) is more than 30 µM in experiment [3]; more than 30 µM on D(3) dopamine receptor; more than 30 µM on Progesterone receptor; more than 30 µM in experiment [4]; 19.6 µM in [5].
In the case of `CN1CCCN=C1/C=C/c1cccc(O)c1` [OXANTEL], the AC50 (at Glucocorticoid receptor; in [1]; in [2]; at Histamine H3 receptor; at Thromboxane A2 receptor; at Histamine H2 receptor) was more than 30 µM throughout. Also, the AC50 (on D(3) dopamine receptor; on Progesterone receptor; in [4]; in experiment [5]) was more than 30 µM each time.
Take `CC(C)(N)Cc1ccccc1` [PHENTERMINE]: the concentration at half-maximal activity (AC50) was more than 30 µM on Glucocorticoid receptor; more than 30 µM in experiment [1]; more than 10 µM at Histamine H1 receptor; more than 30 µM in [2]; more than 10 µM on Histamine H3 receptor; more than 30 µM on Thromboxane A2 receptor. For the same compound, the AC50 was more than 10 µM on Histamine H2 receptor; 5.73 µM in [3]; more than 30 µM at D(3) dopamine receptor; more than 30 µM in experiment [4]; more than 30 µM in experiment [5].
